Data from patent US12576047B2, “Telomerase activating compounds for use in fertility and related applications” (Neuromagen Pharma Ltd, priority 2017, dated 2026).

What was measured:
telomerase = molecular target: T1, telomerase (Mus musculus, UniProt O70372); test: Telomerase activity in mouse ovary by TRAP assay after s.c. injection; format: in vivo; conditions: single dose 6 mg/Kg s.c., 12 hours
T1 construct: the ovaries were removed, and proteins extract used for measuring telomerase activity by TRAP assay; from tissue; host or cells: ovary of female ICR mice
T1 sequence (O70372 1-1122): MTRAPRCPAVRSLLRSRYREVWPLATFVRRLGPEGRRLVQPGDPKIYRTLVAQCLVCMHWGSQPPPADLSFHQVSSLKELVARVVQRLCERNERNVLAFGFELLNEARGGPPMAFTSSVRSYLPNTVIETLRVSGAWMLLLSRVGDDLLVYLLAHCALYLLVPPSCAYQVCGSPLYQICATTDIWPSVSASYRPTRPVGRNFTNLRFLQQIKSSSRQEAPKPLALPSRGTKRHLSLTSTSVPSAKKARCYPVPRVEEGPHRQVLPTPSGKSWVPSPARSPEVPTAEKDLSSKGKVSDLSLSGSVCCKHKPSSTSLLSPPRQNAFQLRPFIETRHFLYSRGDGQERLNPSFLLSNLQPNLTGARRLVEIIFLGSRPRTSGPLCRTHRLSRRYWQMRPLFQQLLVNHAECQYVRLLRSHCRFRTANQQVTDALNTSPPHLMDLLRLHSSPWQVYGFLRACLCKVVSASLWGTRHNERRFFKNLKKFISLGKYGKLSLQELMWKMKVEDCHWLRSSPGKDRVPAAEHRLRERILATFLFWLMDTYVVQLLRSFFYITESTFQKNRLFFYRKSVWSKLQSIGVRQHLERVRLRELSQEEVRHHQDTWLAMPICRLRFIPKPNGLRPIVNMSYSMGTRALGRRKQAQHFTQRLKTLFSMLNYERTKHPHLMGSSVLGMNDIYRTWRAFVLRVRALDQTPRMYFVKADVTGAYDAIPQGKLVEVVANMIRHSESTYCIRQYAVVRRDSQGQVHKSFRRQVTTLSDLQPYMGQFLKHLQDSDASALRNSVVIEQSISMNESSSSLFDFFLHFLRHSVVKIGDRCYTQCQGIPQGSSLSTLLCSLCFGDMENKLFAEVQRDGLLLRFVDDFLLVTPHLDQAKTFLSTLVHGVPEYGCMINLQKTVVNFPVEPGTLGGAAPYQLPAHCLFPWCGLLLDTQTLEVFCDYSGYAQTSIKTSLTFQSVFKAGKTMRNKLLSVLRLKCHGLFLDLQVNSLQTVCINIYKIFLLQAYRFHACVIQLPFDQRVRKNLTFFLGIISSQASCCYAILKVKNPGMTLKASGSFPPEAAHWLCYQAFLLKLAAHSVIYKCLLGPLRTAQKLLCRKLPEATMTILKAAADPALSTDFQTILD
Protocol: The ovaries were homogenized and centrifuged at 1200 RPM at 4° C. for 10 min, then suspended in CHAPS buffer (10 mM Tris-HCl pH-7.0, 1 mM MgCl2, 1 mM EDTA […], 0.1 mM PMSF, 0.5% 3 [(3 Cholamidopropyl)dimethylammonio]-propanesulfonic acid [CHAPS] and 10% glycerol) on ice for 30 min and centrifuged again at 13500 RPM at 4° C. for 30 min, the supernatant was collected. Total proteins concentration was determined using the Bio-Rad protein assay kit (Bio-Rad Laboratories, Germany).
Telomerase activity in mice ovary was evaluated by a slight modification of the TRAP assay [Grin, Y., T. Admoni, and E. Priel, Telomerase activity in the various regions of mouse brain: non-radioactive telomerase repeat amplification protocol (TRAP) assay. J Vis Exp, 2014 (91): p. e51865]. […] These products were separated on a 4.5% high-resolution agarose mini-gel and detected with Gel-Red solution (X10000 stock solution diluted to X3 working solution with 0.01M NaCl) for 20 minutes. […] Quantification of Telomerase Activity
TRAP assay products were quantified by densitometric analysis using the EZQuant software (EZQuant Ltd. Rehovot, Israel) and normalized to IS (Internal standard). […] The data which were normalized to the IS were calculated as % from the positive control values in each experiment. […]

LH = LH expression by RT-PCR in pituitary gland cells; format: cell-based, mouse; conditions: 50 nM, vs untreated
Protocol: FIGS. 29A, 29B, 29C and 29D: The embodied compounds affect the expression of gonadotropin hormones in pituitary gland cells. Cells (L T2) derived from the mouse pituitary gland were assessed for their secretion of LH and FSH at 6 (FIGS. 29A and 29B) and 12 hours (FIGS. 29C and 29D) following treatment with the indicated embodied compounds (50 nM). FSH and LH expression was determined by RT-PCR, and quantified from 5 different experiments, as assessed for significance, using the t test, one way ANOVA.

female ICR mice = test: Estrous cycle stage by vaginal smears; format: in vivo, mouse
Protocol: Female ICR mice at least 3 months old were administered embodied compounds of this invention (Compound 79 and Compound 68) (6 mg/Kg) or DMSO alone (0.5%) by subcutaneous administration. Vaginal smears were taken at baseline and at 12 hours following the administration to determine estrous cycle stage and mice were then sacrificed.

[1] = injected at the diestrus or metestrus stages
[2] = single dose injected in the proestrus or estrus stages

CC(c1cc(Br)c(O)c(Br)c1)(c1cc(Br)c(O)c(Br)c1)c1cc(Br)c(O)c(Br)c1 [Compound 68]
increase of telomerase activity in mouse ovary (telomerase; all examined ages (10 days, 18 days, 1 month, 3 months)): up to 1.5 fold | LH expression (LH; 12 hours): increased LH production above untreated levels | estrous cycle stage 12 hrs post treatment (female ICR mice; [1]): No changes in the estrous cycle stage | estrous cycle stage 12 hrs post treatment (female ICR mice; [2]): in the metestrus stage

CCOCc1cc(C(C)(c2cc(COCC)c(O)c(COCC)c2)c2cc(COCC)c(O)c(COCC)c2)cc(COCC)c1O [Compound 79]
telomerase activity in mouse ovary at various ages (telomerase; ages 10 days to 3 months): significantly increased telomerase activity only in the ovary of 3 months old mouse | LH expression (LH; 6 hours post treatment): increased expression of LH above untreated levels | estrous cycle stage 12 hrs post treatment (female ICR mice; [1]): No changes in the estrous cycle stage | estrous cycle stage 12 hrs post treatment (female ICR mice; [2]): in the metestrus stage
